Consider two substances from patent US20260137091A1, “NEW PEPTIDES AND THE USE OF SAME FOR MODULATING ACCUMULATION OF A PROTEIN” (priority 2022, published 2026).

The assay relates to NSP1-GUS fusion protein. Description: Quantification of GUS activity in roots expressing an NSP1-GUS fusion after cPEP treatment. It is filed as in vivo. To be noted: Medicago truncatula transformed roots; treatment for 5 days with 0.1 μM cPEP by spraying; versus control (water). The procedure:
The y-axis represents the quantification of GUS activity in the roots of an NSP1-GUS fusion in response to treatment for 5 days with 0.1 μM of a cPEP targeting the 5′UTR region of the NSP1 gene. Error bars represent SEM, asterisks indicate a significant difference between test condition and control according to Student's t-test (n=30, p<0.05).
NSP1::GUS fusion was achieved, using a modified pCambia vector (Lauressergues et al., Nature, 520: 90-3, 2015), by cloning 3 kb of NSP1 promoter, the NSP1 gene coding sequence, the GUS protein coding sequence and 3 kb of the NSP1 gene downstream sequence (FIG. 2).
Root transformation of M. truncatula was carried out using the method described in Boisson-Dernier et al, Mol Plant Microbe Interact, 14(6): 695-700, 2001.
Plants were treated by spraying with a solution containing a low concentration of cPEPs (from 0.1 μM to 10 μM) or with water.
The accumulation of the protein targeted by cPEP was then measured in each plant by quantifying GUS activity or by quantifying protein activity by Western blot (Blizquez M., Quantitative GUS activity assay in intact plant tissue, Cold Spring Harbor Laboratory Press, Cold Spring Harbor, NY, USA, 2002).

On to “SEQ ID NO: 162: cPEP (11 amino acids) translated from a fragment of the 5′UTR of NSP1 pre-mRNA, +3 reading frame (KPFKFSSSISH; NSP1-5UTR-11)”, for which the “accumulation of the NSP1 protein (quantification of GUS activity in the roots of an NSP1-GUS fusion)” value is listed as “increase in the accumulation of the NSP1 protein”. On to “SEQ ID NO: 164: cPEP (10 amino acids) translated from a 30 nucleotide fragment of the 3′UTR of NSP1 pre-mRNA, +2 reading frame (CHHDEVISPQ; NSP1-3UTR)”, for which the “accumulation of the NSP1 protein (quantification of GUS activity in the roots of an NSP1-GUS fusion)” value is recorded as “increase in the accumulation of the NSP1 protein”.
